Test results reported in publication PMC4607889, “Modular Design of the Selectivity Filter Pore Loop in a Novel Family of Prokaryotic ‘Inward Rectifier’ (NirBac) channels” (Scientific Reports, 2015).
Values belong to the compound of their own block, whether it stands above or below them.

What was measured:
NirBac1.1 = molecular target: T1, NirBac1.1 (Anaeromyxobacter dehalogenans, UniProt Q2IH88); assay: […]+ uptake into proteoliposomes; type: biochemical; details: POPG as part of liposome lipid, 25% vs 50% of total; Na+ driven; activator
T1 sequence (Q2IH88 1-305): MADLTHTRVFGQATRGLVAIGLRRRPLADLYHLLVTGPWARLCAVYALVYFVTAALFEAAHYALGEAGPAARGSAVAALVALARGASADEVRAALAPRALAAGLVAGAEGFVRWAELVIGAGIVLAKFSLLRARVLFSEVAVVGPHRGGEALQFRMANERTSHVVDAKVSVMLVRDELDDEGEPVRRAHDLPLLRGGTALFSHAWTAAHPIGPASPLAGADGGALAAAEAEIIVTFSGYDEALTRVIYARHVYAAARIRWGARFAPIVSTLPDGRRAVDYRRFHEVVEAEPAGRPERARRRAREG

NirBac1.2 = molecular target: T2, NirBac1.2 (Anaeromyxobacter sp. Fw109-5, UniProt A7HIG5); assay: […]+ uptake into proteoliposomes; type: biochemical; details: POPG as part of liposome lipid, 25% vs 50% of total; Na+ driven; activator
T2 sequence (A7HIG5 1-299): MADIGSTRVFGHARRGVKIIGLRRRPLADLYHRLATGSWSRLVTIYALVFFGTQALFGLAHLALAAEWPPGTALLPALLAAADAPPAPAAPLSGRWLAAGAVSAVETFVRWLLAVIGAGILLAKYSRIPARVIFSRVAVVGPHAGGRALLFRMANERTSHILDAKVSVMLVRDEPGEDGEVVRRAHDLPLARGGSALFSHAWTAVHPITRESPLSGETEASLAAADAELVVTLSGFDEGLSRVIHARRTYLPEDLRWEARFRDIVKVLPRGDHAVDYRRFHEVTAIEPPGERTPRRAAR

[1] = molecular target: NirBac1.1 (Anaeromyxobacter dehalogenans 2CP-C); assay: SEC + native gel or EMSA; purified channel in detergent, non-denaturing conditions; Superdex200; oligomeric state (Supplementary Figure S2B,C)
[2] = molecular target: NirBac1.2 (Anaeromyxobacter sp. Fw109-5); assay: as above

Compound: CCCCCCCC/C=C\CCCCCCCC(=O)O[C@H](COC(=O)CCCCCCCCCCCCCCC)COP(=O)(O)OCC(O)CO (stereo partly shown) [POPG]
fold flux increase, 25% to 50% POPG (NirBac1.1): > 5 fold
fold flux increase, 25% to 50% POPG (NirBac1.2): > 5 fold

stoichiometry N [1]: 4
Compound: NirBac1.1 (natural protein)

stoichiometry N [2]: 4
Compound: NirBac1.2 (natural protein)
